Patent US20230105103A1, “THERAPEUTIC MOLECULES FOR COMBATING SEPSIS” (CENTRE FOR CELLULAR AND MOLECULAR PLATFORMS, priority 2019, published 2023)
Entries after “also recorded” stand apart in the source; their conditions may differ.

Experiments:
[1] = test system: CLP model of sepsis in mice; test: CLP study, survival of mice treated with chito-oligomers; type: in vivo; conditions: for protection over 'Antibiotic-alone' group: intervention at 6 hours, 7 days; for survival over 7 days: intervention at 6 hours post-surgery, about 250 μg single IP dose with antibiotics, FIG. 5A
Method: The CLP study with 7-9 week old C57BL/6 or BALB/c males was conducted, at animal house facility at TheraIndx Lifesciences Pvt. Ltd. (Bangalore, India) and Institute of Life Sciences (Bhubaneswar, India) respectively, in accordance with ethical practices laid down in the CPCSEA guidelines for animal care and use (CPCSEA, 2003). The Institutional Animals Ethics Committee (IAEC) of the test facility approved the studies. The CLP was performed as described before (Rittirsch et al., 2009; Toscano et al., 2011). […] About 500 μl saline was administered subcutaneously immediately after surgery. Tramadol (about 20 mg/kg) was injected subcutaneously for post-operative analgesia. […] A separate group of C57BL/6 mice received single IP dose of about 250 μg of 6-mer, 7-mer or 8-mer at either 6 hour or 24 hour post CLP. All groups except the CLP alone (control) received a single dose of standard antibiotics (amoxicillin and clavulanate) 6 hour post CLP. Control group was injected with saline solution. Total of 92 C57BL/6 and 18 BALB/c mice were used in the study.
Experimental data were analyzed using GraphPad Prism 8 (GraphPad Software, Inc.). Kruskal-Wallis test and one way ANOVA test was used for analysis of cytokines and reporter assay values. Log-rank (Mantel-Cox) test was utilized for survival analysis. P-values, P<0.05 were considered statistically significant and are denoted by […] if calculated P-values were lower than P=0.05.

CLP mice = test: Plasma cytokine levels in CLP mice (Bio-Plex multiplex assay); type: in vivo; conditions: for plasma IL-6 levels: 6 hours post intervention, versus untreated, FIG. 5C; for levels of IL-1b over time / levels of MCP-1 over time / levels of TNF-α over time: individual CLP mice, 6 hours versus 48 hours post treatment
Method: The CLP study with 7-9 week old C57BL/6 or BALB/c males was conducted, at animal house facility at TheraIndx Lifesciences Pvt. Ltd. (Bangalore, India) and Institute of Life Sciences (Bhubaneswar, India) respectively, in accordance with ethical practices laid down in the CPCSEA guidelines for animal care and use (CPCSEA, 2003). The Institutional Animals Ethics Committee (IAEC) of the test facility approved the studies. The CLP was performed as described before (Rittirsch et al., 2009; Toscano et al., 2011). Sham control mice had undergone surgery with ceacal manipulations without ligation and puncture. About 500 μl saline was administered subcutaneously immediately after surgery. Tramadol (about 20 mg/kg) was injected subcutaneously for post-operative analgesia. BALB/c mice were injected with single IP close of about 500 μg GA132 (GA is the internal code which has been used by the inventors of the present invention) while C57BL/6 mice received single IP dose of about 300 μg or about 700 μg GA132 6 hours post CLP. A separate group of C57BL/6 mice received single IP dose of about 250 μg of 6-mer, 7-mer or 8-mer at either 6 hour or 24 hour post CLP. All groups except the CLP alone (control) received a single dose of standard antibiotics (amoxicillin and clavulanate) 6 hour post CLP. Control group was injected with saline solution. Total of 92 C57BL/6 and 18 BALB/c mice were used in the study.
The Mutiplex immunoassay for Human and Mouse IL-1b, IL-6, IL-10, TNF-α and MCP-1 were purchased from Bio-Rad. For human cytokines, 1×10^6 PBMCs were seeded in 24 well plate a day before and treated with 100 ng/ml LPS or 50 μg/ml GA132 for 24 hours. The culture supernatant from three independent biological replicates was collected and used for the assay without dilution. For mice cytokines, the plasma samples from mice were collected 6 or 48 hours post treatment and diluted in PBS (Phosphate Buffered Saline) in 1:2 before assay. The assay was performed as per manufacturers' method and the beads were read and analyzed in Bio-Plex® MAGRIX™ Multiplex Reader (Bio-Rad) (https://www.bio-rad.com/webroot/web/pdg/lsr/literature/10014905.pdf).

TLR2 [2] = target: T1, TLR2 (Homo sapiens, UniProt O60603); test: HEK-Blue TLR2 reporter assay (NF-kb and AP-1 driven SEAP); type: cell-based; parameters: host or cells: HEK293 (HEK-Blue TLR2 reporter cells)
Text: (§1) P1 fraction tested on reporter cell lines where TLR2, TLR4 or TLR3 is expressed in HEK293 cells and activation of the receptors is observed by NP-kB and AP-1 promoter driven SEAP enzyme secretion.
(§2) HEK-Blue TLR2, HEK-Blue TLR3 and HEK-Blue TLR4 reporter cells expressing SEAP (secreted embryonic alkaline phosphatase) enzyme under NF-kb and AP-1 promoter (Cat. no.# hkb-htlr2, hkb-htlr3 and hkb-htlr4) were purchased from InvivoGen (USA). Human Peripheral blood mononuclear cells (PBMCs) (Cat. no.# CL003-25) were purchased from Himedia laboratories (India). HEK based cells and PBMCs were cultured DMEM and RPMI media, respectively. The cells were maintained at 37° C. incubator with 5% CO2. The culture media was supplemented with 10% Fetal Calf Serum (Gibco) along with standard antibiotics. HEK-Blue selection antibiotics (InvivoGen, Cat. no.# hb-sel, ant-zn and ant-bl) were added as per manufacturers' instructions.
(§3) 2×10^4 HEK-Blue reporter cells were seeded, in each well of a 96 well plate, in HEK-Blue detection media (InvivoGen, Cat. no.# hb-det3) along with the 50 μg/ml of the chito-oligomers. […] The treated cells were incubated at about 37° C. for about 16 hours and absorbance (O.D.) was measured at 620 nm in either TECAN Infinite® 200 PRO or Thermo Scientific Varioskan LUX multimode reader.
Target sequence in this assay (O60603 21-784): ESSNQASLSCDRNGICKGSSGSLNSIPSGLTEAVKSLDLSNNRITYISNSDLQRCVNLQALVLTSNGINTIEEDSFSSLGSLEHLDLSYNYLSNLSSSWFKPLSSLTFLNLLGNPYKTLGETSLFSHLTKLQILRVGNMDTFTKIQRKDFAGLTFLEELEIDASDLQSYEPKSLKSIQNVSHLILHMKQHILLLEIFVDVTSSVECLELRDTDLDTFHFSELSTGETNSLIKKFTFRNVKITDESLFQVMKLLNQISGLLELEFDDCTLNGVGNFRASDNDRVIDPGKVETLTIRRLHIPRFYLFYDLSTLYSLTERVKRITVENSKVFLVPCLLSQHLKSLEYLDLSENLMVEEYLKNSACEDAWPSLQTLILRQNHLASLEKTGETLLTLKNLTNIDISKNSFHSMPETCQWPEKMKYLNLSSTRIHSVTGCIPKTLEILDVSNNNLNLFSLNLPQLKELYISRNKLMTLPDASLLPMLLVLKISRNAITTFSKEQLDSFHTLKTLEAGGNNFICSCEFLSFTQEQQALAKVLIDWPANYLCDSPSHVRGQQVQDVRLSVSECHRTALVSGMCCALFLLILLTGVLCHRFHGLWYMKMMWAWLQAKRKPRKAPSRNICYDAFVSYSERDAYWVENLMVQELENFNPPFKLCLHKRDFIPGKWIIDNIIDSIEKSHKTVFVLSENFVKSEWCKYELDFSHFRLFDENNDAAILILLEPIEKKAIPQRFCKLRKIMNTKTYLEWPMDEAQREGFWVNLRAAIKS

TLR2 [3] = target: T1, TLR2; conditions: Das et al., 2019; cited from earlier work
Target sequence in this assay (O60603 21-784, species assumed): as the sequence (O60603 21-784) above

[4] = test system: septic mice in the CLP model (polymicrobial sepsis); test: Survival of septic mice in CLP model, native protein; type: in vivo
Method: About 80% of mice that received 15-35 μg of protein and about 60% mice that received 1-20 μg of protein survived even up to 16 days. More preferably, 80% of mice that received 25 μg of protein and 60% mice that received 10 μg of protein survived even up to 16 days. All the mice in the control group had died in the same duration.

THP-1 cells = THP-1 cells treated with P1 and Pp, cytokine secretion; type: cell-based, human
Method: THP-1 cells (human acute monocytic leukemia cell line) were procured from ATCC (Cat. No# ATCC® TIB-202™). The THP-1 cells were treated with the P1 and Pp to check for any pro-inflammatory activity.

TLR3 = TLR3 (Homo sapiens, UniProt O15455); conditions: P1 fraction, HEK293 reporter cells, FIG. 7
Text: as §1, §2, §3

TLR4 = target: T2, TLR4 (Homo sapiens, UniProt O00206); test: HEK-Blue TLR4 reporter assay (NF-kb and AP-1 driven SEAP); type: cell-based; conditions: P1 fraction, HEK293 reporter cells, FIG. 7
T2 construct: host or cells: HEK293 (HEK-Blue TLR4 reporter cells)
Text: as §1, §2, §3

IL-18 = conditions: monocytes, in vitro, FIG. 8
Text: Increased levels of IL-18 have also been associated with higher mortality in sepsis. In endotoxemia mice models IL-18 knockout mice show better survival than the wild type indicating a role of IL18 in disease severity (Berghe T V, 2014 Eidt M V, 2016).

[5] = test system: septic mice in endotoxemia model; test: Survival in endotoxemia model (LPS injection), native protein; type: in vivo; conditions: treated 6 hours post LPS injection, up to ten days, group G2
Method: In this model, post LPS Injection (i.e., 6 hours) animals were treated with vehicle and test agents amongst different groups G1-G5 as specified in figure. G2 (LPS+DIA-1) was treated with the P1 protein while G3 and G4 were other test protein used as experimental controls.

[6] = C57BL/6 CLP mice, single dose at 24 hours post-surgery
[7] = CLP mice, 48 hours, versus untreated group, FIG. 5D

T2 sequence (O00206 24-839): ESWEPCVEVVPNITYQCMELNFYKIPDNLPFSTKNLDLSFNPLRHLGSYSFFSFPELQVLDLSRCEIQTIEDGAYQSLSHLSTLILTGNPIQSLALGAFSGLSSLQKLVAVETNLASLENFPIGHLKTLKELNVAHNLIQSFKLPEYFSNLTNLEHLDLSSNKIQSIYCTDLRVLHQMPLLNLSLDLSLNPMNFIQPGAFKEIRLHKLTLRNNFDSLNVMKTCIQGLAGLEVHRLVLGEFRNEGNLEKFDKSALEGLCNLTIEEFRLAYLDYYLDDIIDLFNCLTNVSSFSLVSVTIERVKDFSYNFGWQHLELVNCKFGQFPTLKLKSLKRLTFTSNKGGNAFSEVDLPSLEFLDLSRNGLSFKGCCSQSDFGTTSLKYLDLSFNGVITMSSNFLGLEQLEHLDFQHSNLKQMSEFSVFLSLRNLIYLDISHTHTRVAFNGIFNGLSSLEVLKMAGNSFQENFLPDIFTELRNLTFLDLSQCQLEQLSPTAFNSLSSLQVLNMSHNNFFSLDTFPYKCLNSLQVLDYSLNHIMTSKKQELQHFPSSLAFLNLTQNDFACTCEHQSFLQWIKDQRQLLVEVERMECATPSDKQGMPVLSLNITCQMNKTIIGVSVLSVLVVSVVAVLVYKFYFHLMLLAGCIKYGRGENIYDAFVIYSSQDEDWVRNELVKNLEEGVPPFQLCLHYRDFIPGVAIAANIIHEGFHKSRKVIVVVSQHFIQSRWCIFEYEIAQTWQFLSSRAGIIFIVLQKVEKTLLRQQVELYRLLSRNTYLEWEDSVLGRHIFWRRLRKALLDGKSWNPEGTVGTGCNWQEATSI
T2 sequence (Q9Y6Y9 17-160 partner limits assumed): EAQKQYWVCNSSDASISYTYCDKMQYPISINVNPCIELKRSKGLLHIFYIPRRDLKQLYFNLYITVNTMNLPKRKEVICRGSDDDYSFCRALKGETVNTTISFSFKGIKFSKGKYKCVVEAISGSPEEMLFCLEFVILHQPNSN

With `CC(=O)N[C@H]1[C@H](O[C@H]2[C@H](O)[C@@H](NC(C)=O)[C@H](O[C@H]3[C@H](O)[C@@H](NC(C)=O)C(O)O[C@@H]3CO)O[C@@H]2CO)O[C@H](CO)[C@@H](O[C@@H]2O[C@H](CO)[C@@H](O[C@@H]3O[C@H](CO)[C@@H](O[C@@H]4O[C@H](CO)[C@@H](O)[C@H](O)[C@H]4NC(C)=O)[C@H](O)[C@H]3NC(C)=O)[C@H](O)[C@H]2NC(C)=O)[C@@H]1O` (some centres unmarked) [6-mer, Hexa-N-acetyl Chitohexaose] the “protection over 'Antibiotic-alone' group” value ([1]; C57BL/6 CLP mice) was “no additional protection”, the “survival compared to 'Antibiotic alone' group” value [1, 6] was “no change” and the “plasma IL-6 levels” value (CLP mice; CLP mice) was “significant decrease”. The “levels of IL-1b over time” value (CLP mice) was “no effect”, the “levels of MCP-1 over time” value (CLP mice) was “no effect” and the “levels of TNF-α over time” value (CLP mice) was “no effect”.

In the case of `CC(=O)N[C@H]1[C@H](O[C@H]2[C@H](O)[C@@H](NC(C)=O)[C@H](O[C@H]3[C@H](O)[C@@H](NC(C)=O)[C@H](O[C@H]4[C@H](O)[C@@H](NC(C)=O)C(O)O[C@@H]4CO)O[C@@H]3CO)O[C@@H]2CO)O[C@H](CO)[C@@H](O[C@@H]2O[C@H](CO)[C@@H](O[C@@H]3O[C@H](CO)[C@@H](O[C@@H]4O[C@H](CO)[C@@H](O)[C@H](O)[C@H]4NC(C)=O)[C@H](O)[C@H]3NC(C)=O)[C@H](O)[C@H]2NC(C)=O)[C@@H]1O` (some centres unmarked) [7-mer, Hepta-N-acetyl Chitoheptaose], the “activity in TLR2 reporter cells compared between oligomers” value (TLR2 [2]; HEK-Blue TLR2 reporter cells, 50 μg/ml) is reported as “significantly higher than 8-mer”, the “survival over 7 days” value ([1]; C57BL/6 CLP mice) is reported as “around 90%” and the “survival up to 7 days” value ([1]; C57BL/6 CLP mice, single dose at 24 hours post-surgery, FIG. 5B) is reported as 80%. The mortality ([1]; single dose of 200-250 μg 6 hours and 24 hours post-CLP, till day 7, FIG. 4) was “significant mortality reduction”, the “plasma IL-6 levels” value (CLP mice; CLP mice) was “significant decrease” and the “plasma IL-1b” value (CLP mice; [7]) was “significant reduction”. For the same compound, the “plasma IL-10” value (CLP mice; [7]) was “significant reduction”, the “plasma MCP-1” value (CLP mice; [7]) was “significant reduction” and the “plasma TNF-α” value (CLP mice; [7]) was “significant reduction”. The “levels of IL-1b over time” value (CLP mice) was “significant reduction”, the “levels of MCP-1 over time” value (CLP mice) was “significant reduction” and the “levels of TNF-α over time” value (CLP mice) was “significant reduction”.

With `CC(=O)N[C@H]1[C@H](O[C@H]2[C@H](O)[C@@H](NC(C)=O)[C@H](O[C@H]3[C@H](O)[C@@H](NC(C)=O)[C@H](O[C@H]4[C@H](O)[C@@H](NC(C)=O)C(O)O[C@@H]4CO)O[C@@H]3CO)O[C@@H]2CO)O[C@H](CO)[C@@H](O[C@@H]2O[C@H](CO)[C@@H](O[C@@H]3O[C@H](CO)[C@@H](O[C@@H]4O[C@H](CO)[C@@H](O[C@@H]5O[C@H](CO)[C@@H](O)[C@H](O)[C@H]5NC(C)=O)[C@H](O)[C@H]4NC(C)=O)[C@H](O)[C@H]3NC(C)=O)[C@H](O)[C@H]2NC(C)=O)[C@@H]1O` (some centres unmarked) [8-mer, Octa-N-acetyl Chitooctaose] the “survival over 7 days” value ([1]; C57BL/6 CLP mice) was 40%, the “protection over 'Antibiotic-alone' group” value ([1]; C57BL/6 CLP mice) was “no additional protection” and the “survival compared to 'Antibiotic alone' group” value [1, 6] was “no change”. The “plasma IL-6 levels” value (CLP mice; CLP mice) was “reduced in 8-mer treated mice when compare to untreated mice but the difference was not found to be significant”, the “levels of IL-1b over time” value (CLP mice) was “increase” and the “levels of MCP-1 over time” value (CLP mice) was “increase”. The “levels of TNF-α over time” value (CLP mice) was “increase”.

For `CC(=O)N[C@H]1[C@H](OC2CCCCC2)O[C@H](CO)[C@@H](O[C@@H]2O[C@H](CO)[C@@H](O)[C@H](O)[C@H]2NC(C)=O)[C@@H]1O` [AVR-25], the “binding affinity to TLR2” value (TLR2 [3]) is listed as “did not show any binding affinity”.

For “P1: Major G75 size exclusion peak of AgW from Setaria digitata, a pure glycoprotein identified as Heat Shock Protein 70 (SEQ. ID NO. 1)”, the “mice survived up to 16 days” value ([4]; 10 μg of protein) was 60%, the “mice survived up to 16 days” value ([4]; 25 μg of protein) was 80% and the “mice survived up to 16 days” value ([4]; 1-20 μg of protein) was “about 60%”. For the same compound, the “mice survived up to 16 days” value ([4]; 15-35 μg of protein) was “About 80%”, the “activation of TLR2 (SEAP secretion)” value (TLR2 [2]; P1 fraction, HEK293 reporter cells, FIG. 7) was “activates; also recorded: consistently activating” and the “alternate activation marker CLEC10A or CD301” value (THP-1 cells; THP-1 cells) was “reduces”. The “secretion of pro-inflammatory cytokines” value (THP-1 cells; THP-1 cells, FIG. 1B) was “highly active”, the “secretion of IL-1b” value (THP-1 cells; THP-1 cells, FIG. 1C) was “promote secretion” and the “secretion of IL-6” value (THP-1 cells; THP-1 cells, FIG. 1C) was “promote secretion”. For the same compound, the “secretion of IL-10” value (THP-1 cells; THP-1 cells, FIG. 1C) was “promote secretion”, the “secretion of MCP-1” value (THP-1 cells; THP-1 cells, FIG. 1C) was “promote secretion” and the “secretion of TNF-α” value (THP-1 cells; THP-1 cells, FIG. 1C) was “promote secretion”. For the same compound, the induction of cytokines (THP-1 cells; THP-1 monocytic cells, FIG. 1C) was “activated the THP-1 monocytic cells”, the “activation of TLR3 (SEAP secretion)” value (TLR3) was “no activation” and the “activation of TLR4 (SEAP secretion)” value (TLR4) was “activates; also recorded: consistently activating”. For the same compound, the “reduction in IL-18 transcript levels” value (IL-18) was “more than 60%” and the survival [5] was 66%.

For “amoxicillin and clavulanate [Antibiotic—alone, reference compound]”, the “survival over 7 days” value ([1]; C57BL/6 CLP mice) was 60%.
